Assay results published in patent US9708359B2, “Pyrrolopyrimidine nucleosides and analogs thereof” (Chimerix, Inc., priority 2015, dated 2017).
“Also recorded” adds a separate entry of the source. Where two headings read alike, the source gives them in different places.

Assays:
[1] = test system: murine norovirus (MNV) CR3; experiment: Study No. 1: efficacy against Murine Norovirus infection in mice; assay type: in vivo, BALB/c mice; conditions: for murine norovirus titer in tissue and feces: 30, 100, 300 mg/kg/day BID oral gavage from day −2, 10^6 PFU, day 3 post-infection
Procedure: Study No. 1 evaluated the efficacy of twice-daily dosing of Compound 1 over a range of 30 mg/kg to 300 mg/kg, initiated prior to infection of mice with 10^6 plaque-forming units (PFU) of murine norovirus (MNV) CR3. A control group of mice treated with vehicle was also included. All doses were started 2 days (39 hours) prior to infection.
Compound was delivered twice daily at indicated doses via oral gavage. A control group of mice treated with vehicle only was also included. Mice were infected with murine norovirus by pipetting virus into mouth 2 days after the first dose. Mice were housed on metal grates and combined fecal output was collected every 24 hours. Tissues (distal ileum and cecum) and individual fecal pellets were harvested on day 3 post inoculation. All samples were titered by plaque assay.
For both studies, compound was delivered via oral gavage at the indicated doses and times prior to infection. Mice were infected with murine norovirus CR3 by pipetting virus into mouth 3 hours after the first day 0 dose of Compound 1 was given. Following infection, compound was administered twice daily through day 3 post-infection.
The mice used were ˜20 gram, 8-12 week old female BALB/c mice in groups of 5. Mice were housed on metal grates and combined fecal output was collected every 24 hours, starting at day −1. Tissues (˜1 cm of distal ileum and cecum) and individual fecal pellets were harvested on day 3 post-infection and weighed. All samples were titered by plaque assay (qRT-PCR as back-up when titers are too low); titers were normalized to gram of tissue or feces. On day 3, duplicate samples of tissue (˜1 cm of distal ileum and cecum) were collected, rinsed in PBS, and snap frozen; serum and a duplicate feces sample were also collected on day 3 and snap frozen; this set of sample was submitted for MS analysis to assess drug bioavailability.

[2] = CytoTox-1 cytotoxicity assay in Huh 7 cells; assay type: cell-based; conditions: human, parallel to HCV assay
Procedure: Luciferase reporter (Replicon)/CytoTox-1 (Toxicity). Compounds were screened for anti-HCV activity using a luciferase (Luc) reporter gene endpoint in the HCV primary assay. The Luc reporter was used as an indirect measure of HCV replication as its activity is directly proportional to HCV RNA levels. Assessment of cytotoxicity is conducted in parallel. Drug stocks were prepared in DMSO unless otherwise specified and were diluted with tissue culture medium to the desired high-test concentration. For each assay, the compounds were then further diluted in tissue culture medium as required. After incubation, the cells were processed to derive, where applicable, EC50 and EC90 (compound concentration reducing replicon replication by 50% and 90% respectively). […] Anti-HCV activity was assessed with the replicon (genotype 1b or 2a) or HCVcc virus-derived Luc activity as readout; whereas the cytotoxic concentrations of drug reducing cell numbers was assessed by the CytoTox-1 cell proliferation assay according to manufacturer's protocol. […]
Luciferase reporter (Replicon)/CytoTox-1 (Toxicity). […] Anti-HCV activity was assessed with the replicon (genotype 1b or 2a) or HCVcc virus-derived Luc activity as readout; whereas the cytotoxic concentrations of drug reducing cell numbers was assessed by the CytoTox-1 cell proliferation assay (Promega, Madison, Wis.) according to manufacturer's protocol. […]

[3] = Parallel cytotoxicity assay in A549 cells; assay type: cell-based; conditions: human, parallel to AdV assay
Procedure: Every antiviral assay included a parallel cytotoxicity assay with the same cells used for each virus, the same cell number, the same drug concentrations, and the same incubation times to provide the same drug exposure. To ensure that the cytotoxicity of all compounds could be compared directly, a standard neutral red uptake cytotoxicity assay for all compounds in confluent HFF cells with a 7 d incubation period was performed.
The primary screen was a cytopathic effect (CPE) reduction assay. Briefly, cultures of cells were infected with virus in the presence of test compounds and incubated for 4-7 days (depending on the specific virus/cells). […] Therefore, antiviral effect, or cytoprotection, was observed when compounds prevent virus replication. […] Cytoprotection and compound cytotoxicity were assessed by MTS dye reduction. The percent reduction in viral CPE (antiviral activity) and percent cell viability (cytotoxicity) were determined and reported.
The primary screen was a cytopathic effect (CPE) reduction assay. […] Cytoprotection and compound cytotoxicity were assessed by MTS (CellTiter®96 Reagent, Promega, Madison Wis.) dye reduction. The percent reduction in viral CPE (antiviral activity) and percent cell viability (cytotoxicity) were determined and reported.

[4] = test system: WNV; experiment: microbe, parasite or virus in culture; assay type: cell-based; conditions: West Nile virus, Vero 76, Vero76 cells
[5] = test system: RVFV; experiment: microbe, parasite or virus in culture; assay type: cell-based; conditions: Rift Valley fever virus, Vero 76
[6] = test system: ENTV-71; experiment: microbe, parasite or virus in culture; assay type: cell-based; conditions: Enterovirus, Vero 76; ENTV-71, Vero76 cells
[7] = test system: VACV; experiment: microbe, parasite or virus in culture; assay type: cell-based; conditions: Orthopoxvirus vaccinia, HFF
[8] = test system: HFF; conditions: HFF cells
[9] = in vitro; conditions: human

For `Cc1nc(N)c2c(C(N)=O)cn([C@@H]3O[C@H](CO)[C@@H](O)[C@H]3O)c2n1` [Compound 1, 4-amino-7-((2R,3R,4S,5R)-3,4-dihydroxy-5-(hydroxymethyl)tetrahydrofuran-2-yl)-2-methyl-7H-pyrrolo[2,3-d]pyrimidine-5-carboxamide], the “murine norovirus titer in tissue and feces” value [1] was “effective in reducing the titer of murine norovirus in both tissue and feces”, the “murine norovirus titer in tissue and feces” value ([1]; listed as compound 1) was “reduce the viral load in mice infected with murine norovirus in a dose-dependent manner; also recorded: showed a reduction in PFU/gram with increasing dose” and the “virus titer in tissue and feces compared with vehicle” value ([1]; twice-daily 300 mg/kg) was “significant reduction in virus titer”. It also gave a CC50 [2] greater than 20 µM, a CC50 [3] greater than 100 µM and an EC50 [4] greater than 100 µM. For the same molecule, the EC50 [5] was greater than 100 µM, the EC50 [6] was greater than 100 µM and the EC50 [7] was 56.2 µM. The CC50 ([8]; parallel to BKV assay) was greater than 60 µM, the CC50 ([8]; parallel to HSV-2 assay) was greater than 60 µM and the CC50 ([8]; parallel to VACV assay) was greater than 60 µM. The CC50 ([8]; parallel to VZV assay) was greater than 60 µM and the CC50 [9] was greater than 60 µM.
